According to patent US20260226049A1, “NITROGEN-CONTAINING HETEROCYCLIC COMPOUND, PREPARATION METHOD THEREFOR, AND USE THEREOF” (BIVISION PHARMACEUTICALS, INC, priority 2023, published 2026):

Assays:
[1] = target: recombinant human dipeptidyl peptidase IV (DPPIV) (Homo sapiens, UniProt P27487); assay: Selective assay, protease inhibition (DPPIV); assay type: biochemical; conditions: substrate Gly-Pro-AMC; read-out: pIC50 (DPPIV) (converted)
Procedure: (§1) The specificity of the synthesized compounds against recombinant human dipeptidyl peptidase IV (DPPIV), fibroblast activation protein (FAP), or prolyl oligopeptidase (PREP) was expressed by their half-maximal inhibitory concentration (IC50) against the proteases.
(§2) 1) The synthesized compound was dissolved in DMSO to a final concentration of 100 mM.
b) For DPPIV assay: The test compound was diluted to a 1 mM solution using a buffer of 25 mM Tris, 250 mM NaCl at pH 7.5.
(§3) 2) The prepared 1 mM test compound solution was serially diluted (1:10) into a row of a 96-well plate using the corresponding buffer mentioned above.
(§4) 3) The substrate was prepared as a DMSO stock solution (FAP and PREP: 2.5 mM Z-Gly-Pro-AMC (VWR, Cat. No. I-1145.0050BA) in DMSO; DPPIV: 100 mM Gly-Pro-AMC (VWR, Cat. No. 100042-646) in DMSO), and subsequently the substrate stock solution was diluted 20-fold using the corresponding buffer mentioned above.
(§5) 4) The enzyme was diluted into the appropriate assay buffer. The final concentrations of DPPIV, FAP, and PREP were […], respectively. To each required well in columns 2-10, 180 μL was added separately. Column 1 (A, B, C) was prepared with 200 μL of the appropriate assay buffer as a control. […]
(§6) 7) Fluorescence was measured at λex: 380, λem: 460. […]

[2] = target: T1, FAP protein (Homo sapiens, UniProt Q12884); assay: Biacore test of ligand binding to FAP protein; conditions: FAP protein on SA chip, 15° C., 1:1 binding model
T1 construct: purchased Sinobiological
T1 sequence (Q12884 1-760): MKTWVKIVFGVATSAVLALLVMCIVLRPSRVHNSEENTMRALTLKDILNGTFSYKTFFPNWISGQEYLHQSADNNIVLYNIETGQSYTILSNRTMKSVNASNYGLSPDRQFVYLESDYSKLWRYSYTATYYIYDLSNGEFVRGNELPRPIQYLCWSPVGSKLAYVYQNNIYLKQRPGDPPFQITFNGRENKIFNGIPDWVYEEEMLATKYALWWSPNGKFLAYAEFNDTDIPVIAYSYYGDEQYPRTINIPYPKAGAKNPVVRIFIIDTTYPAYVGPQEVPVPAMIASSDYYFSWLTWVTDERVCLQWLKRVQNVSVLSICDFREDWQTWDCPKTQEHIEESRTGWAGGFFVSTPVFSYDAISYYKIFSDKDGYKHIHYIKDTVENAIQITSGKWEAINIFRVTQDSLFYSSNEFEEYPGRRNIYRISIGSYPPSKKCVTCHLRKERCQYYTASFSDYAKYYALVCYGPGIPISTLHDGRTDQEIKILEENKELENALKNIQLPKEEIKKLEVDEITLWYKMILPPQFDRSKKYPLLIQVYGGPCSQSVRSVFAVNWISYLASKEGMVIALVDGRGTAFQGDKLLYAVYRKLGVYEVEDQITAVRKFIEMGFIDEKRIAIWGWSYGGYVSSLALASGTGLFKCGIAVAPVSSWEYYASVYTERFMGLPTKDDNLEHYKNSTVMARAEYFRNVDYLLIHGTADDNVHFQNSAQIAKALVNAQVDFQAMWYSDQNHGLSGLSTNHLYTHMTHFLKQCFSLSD
Procedure: The Biacore 8K (Cytiva) instrument was used to detect ligand binding of the FAP protein (Sinobiological). The FAP protein was captured on the SA chip. Before ligand immobilization (flow paths 1 and 2, flow rate of 10 μL/min), the FAP protein (10 μg/mL, flow rate of 5 μL/min, injection time of 600 s) was immobilized on flow path 2 using running buffer, and the sensor surface was conditioned with three consecutive injections of 1 M NaCl in 50 mM NaOH. After each ligand injection, additional washing was carried out with isopropanol in 1 M NaCl and 50 mM NaOH (flow paths 1 and 2, flow rate of 10 μL/min, injection time of 60 s).
The test compounds were dissolved in 100% dimethyl sulfoxide and diluted to 10 mM, then further diluted in the assay buffer (PBS, pH 7.4, 1 mM TCEP ([…]), 0.05% P20, 2% dimethyl sulfoxide) to appropriate maximum concentrations. The analyte was run under the following conditions: analysis temperature=15° C., analysis step=all set to LMW kinetics; cycle type=single cycle (90 s contact time, 1800 s dissociation time, 30 μL/min flow rate, flow channels 1, 2); flow channel detection=2-1). Data evaluation was performed using Biacore Insight Evaluation Software, and the data were fitted to a 1:1 binding model.
The Biacore results are shown in Table 1: pKD=−Log KD, where KD is the binding affinity of the compound to the FAP protein as measured by Biacore. The binding affinity is expressed by KD (M)=Kd(1/s)/Ka(1/Ms). Where A: pKD>8, B: 7<pKD<8, C: 6<pKD<7, D: pKD<6.

[3] = target: T2, recombinant human fibroblast activation protein (FAP) (Homo sapiens, UniProt Q12884); assay: Selective assay, protease inhibition (FAP); assay type: biochemical; conditions: substrate Z-Gly-Pro-AMC
T2 sequence (Q12884 1-760): T1 sequence (Q12884 1-760)
Procedure: as §1, §2
a) For FAP assay: The test compound was diluted to a 1 mM solution using a buffer of 50 mM Tris, 140 mM NaCl at pH 7.5.
as §3, §4, §5, §6

Sequence of recombinant human dipeptidyl peptidase IV (DPPIV) (P27487 whole entry): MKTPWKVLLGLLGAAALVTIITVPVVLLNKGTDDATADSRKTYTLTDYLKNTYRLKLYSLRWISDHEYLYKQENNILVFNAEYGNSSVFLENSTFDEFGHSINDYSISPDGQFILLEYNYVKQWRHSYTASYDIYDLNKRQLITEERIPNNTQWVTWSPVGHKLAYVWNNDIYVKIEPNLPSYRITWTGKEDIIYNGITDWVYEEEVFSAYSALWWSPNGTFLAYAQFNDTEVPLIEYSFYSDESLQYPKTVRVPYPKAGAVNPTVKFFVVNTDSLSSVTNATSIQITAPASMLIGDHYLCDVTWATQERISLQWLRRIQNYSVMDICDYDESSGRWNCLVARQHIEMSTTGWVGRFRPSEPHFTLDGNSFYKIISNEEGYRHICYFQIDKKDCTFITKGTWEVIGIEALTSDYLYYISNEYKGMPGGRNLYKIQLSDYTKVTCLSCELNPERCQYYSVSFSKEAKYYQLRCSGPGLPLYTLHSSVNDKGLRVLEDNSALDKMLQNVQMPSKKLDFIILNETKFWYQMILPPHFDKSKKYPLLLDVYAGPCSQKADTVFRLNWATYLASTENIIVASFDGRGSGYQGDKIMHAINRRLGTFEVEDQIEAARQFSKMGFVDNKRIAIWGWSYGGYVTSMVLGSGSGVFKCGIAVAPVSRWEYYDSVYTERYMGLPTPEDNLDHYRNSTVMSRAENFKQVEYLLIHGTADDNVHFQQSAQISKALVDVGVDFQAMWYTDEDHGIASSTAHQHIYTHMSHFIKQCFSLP

- IC50 [1]: > 1000 nM
- Kd [2]: < 10 nM
- IC50 [3]: 10 to 100 nM
SMILES: N#C[C@@H]1CC(F)(F)CN1C(=O)CNC(=O)c1cccc2c1CCN(C(=O)CCC(=O)NCCNC(=O)CCC(C(=O)O)N1CCN(CC(=O)O)CCN(CC(=O)O)CCN(CC(=O)O)CC1)C2 (stereo partly drawn) [JHH5]
